Measured values published in patent US6781000B1, “Alpha-ketoamide inhibitors of 20S proteasome” (CV Theurapeutics, Inc., priority 1998, dated 2004).

What follows are molecules tested against T1, chymotrypsin-like activity of 20S proteasome (Bos taurus, UniProt Q2TBX6+Q32KL2) (assay: 20S proteasome chymotryptic activity inhibition assay (Suc-Leu-Leu-Val-Tyr-AMC cleavage)). Conditions: 2 μg 20S proteasome from bovine brain, 50 μM fluorogenic substrate, 15 minutes at 37° C., pH7.5.
T1 construct: was purified to homogeneity from bovine brain according to published methods; from tissue; host or cells: bovine brain
Assay type: biochemical
Procedure: Compounds of this invention prepared according to the method of Example 1 were tested as follows. The 20S catalytic subunit of the proteasome (also known as the multicatalytic proteinase complex) was purified to homogeneity from bovine brain according to published methods (Wilk S. and Orlowski,M 1983, 40 842 J.Neurochem). The chymotryptic activity of the complex is measured by the increase in fluorescence following cleavage of the substrate peptide succinyl-leucine-leucine-valine-tyrosine-7-amino-4methyl coumarin. The standard in vitro assay consists of 2 μg 20S proteasome, 0.1-100 μg/ml proteasome inhibitor in 200 μl 50 mM HEPES, containing 0.1% sodium dodecyl sulphate, pH7.5. The proteolytic reaction is initiated by the addition of 50 μM flourogenic peptide substrate and allowed to progress for 15 minutes at 37° C. The reaction is terminated by the addition of 100 μL of 100 mM acetate buffer, pH4.0. The rate of proteolysis is directly proportional to the amount of liberated aminomethylcoumarin which is measured by fluorescent spectroscopy (EX 370 nm, EM 430 nm).

IC50 for the inhibition of the chymotrypsin-like activity of 20S proteasome [µg/mL] | IC50 [µM] | SMILES
>10 | – | CCCCC(NC(=O)C(=O)Cc1c[nH]c2ccccc12)C(=O)NC(CC(C)C)C(=O)NC(C(=O)O)C(C)C (centres unmarked) [Compound 39]
>10 | – | CC(C)CC(NC(=O)C(NC(=O)C(=O)Cc1c[nH]c2ccccc12)C(C)O)C(=O)NC(Cc1ccc(O)cc1)C(=O)O (centres unmarked) [Compound 83]
– | > 17.8 | CC(C)C[C@@H](NC(=O)[C@H](Cc1ccccc1)NC(=O)C(=O)Cc1c[nH]c2ccccc12)C(=O)N[C@H](C(=O)O)C(C)C [Compound 40]
>10 | – | CC(C)CC(NC(=O)C(Cc1ccc(O)cc1)NC(=O)C(=O)Cc1c[nH]c2ccccc12)C(=O)NC(C(=O)O)C(C)C (centres unmarked) [Compound 46]
>10 | – | CC(C)CC(NC(=O)C(=O)Cc1c[nH]c2ccccc12)C(=O)NC(CC(C)C)C(=O)NC(C(=O)O)C(C)C (centres unmarked) [Compound 27]
>10 | – | CCCCC(NC(=O)C(=O)Cc1c[nH]c2ccccc12)C(=O)NC(CC(C)C)C(=O)NC(C)C(=O)O (centres unmarked) [Compound 69]
>10 | – | CC(C)CC(NC(=O)C(Cc1ccc(-c2ccccc2)cc1)NC(=O)C(=O)Cc1c[nH]c2ccccc12)C(=O)NC(Cc1c[nH]cn1)C(=O)O (centres unmarked) [Compound 196]
>10 | – | CC(C)CC(NC(=O)C(CC(=O)O)NC(=O)C(=O)Cc1c[nH]c2ccccc12)C(=O)NC(CCC(=O)O)C(=O)O (centres unmarked) [Compound 155]
– | > 18.6 | CC(C)CC(NC(=O)CNC(=O)C(=O)Cc1c[nH]c2ccccc12)C(=O)NC(Cc1ccc(O)cc1)C(=O)O (centres unmarked) [Compound 82]
>10 | – | CC(C)CC(NC(=O)CCNC(=O)C(=O)Cc1c[nH]c2ccccc12)C(=O)NC(CCC(=O)O)C(=O)O (centres unmarked) [Compound 150]
>10 | – | CC(C)CC(NC(=O)C(Cc1cccnc1)NC(=O)C(=O)Cc1c[nH]c2ccccc12)C(=O)NCC(=O)O (centres unmarked) [Compound 169]
>10 | – | CC(C)CC(NC(=O)C(Cc1ccccc1)NC(=O)C(=O)Cc1c[nH]c2ccccc12)C(=O)NC(CCC(=O)O)C(=O)O (centres unmarked) [Compound 152]
>10 | – | CC(C)CC(NC(=O)C(CC(=O)O)NC(=O)C(=O)Cc1c[nH]c2ccccc12)C(=O)NC(CO)C(=O)O (centres unmarked) [Compound 95]
>10 | – | CC(C)CC(NC(=O)C(Cc1ccccc1)NC(=O)C(=O)Cc1c[nH]c2ccccc12)C(=O)NC(Cc1ccccc1)C(=O)O (centres unmarked) [Compound 107]
– | > 22.5 | CC(C)CC(NC(=O)CCNC(=O)C(=O)Cc1c[nH]c2ccccc12)C(=O)NCC(=O)O (centres unmarked) [Compound 53]
>10 | – | CCCCC(NC(=O)C(CC(C)C)NC(=O)C(Cc1ccc2ccccc2c1)NC(=O)C(=O)Cc1c[nH]c2ccccc12)C(=O)O (centres unmarked) [Compound 178]
>10 | – | CCCC(NC(=O)C(=O)Cc1c[nH]c2ccccc12)C(=O)NC(CC(C)C)C(=O)NCC(=O)O (centres unmarked) [Compound 60]
>10 | – | CCCC(NC(=O)C(=O)Cc1c[nH]c2ccccc12)C(=O)NC(CC(C)C)C(=O)NC(C(=O)O)C(C)C (centres unmarked) [Compound 199]
>10 | – | CCCCC(NC(=O)C(=O)Cc1c[nH]c2ccccc12)C(=O)NC(CC(C)C)C(=O)NC(CCC(=O)O)C(=O)O (centres unmarked) [Compound 151]
>10 | – | CC(C)CC(NC(=O)C(Cc1cccnc1)NC(=O)C(=O)Cc1c[nH]c2ccccc12)C(=O)NCC(=O)O (centres unmarked) [Compound 64]
>10 | – | CC(C)CC(NC(=O)C(Cc1ccc(O)cc1)NC(=O)C(=O)Cc1c[nH]c2ccccc12)C(=O)NC(CO)C(=O)O (centres unmarked) [Compound 98]
>10 | – | CCCCC(NC(=O)C(=O)Cc1c[nH]c2ccccc12)C(=O)NC(CC(C)C)C(=O)NC(CC(=O)O)C(=O)O (centres unmarked) [Compound 136]
>10 | – | CC(C)CC(NC(=O)C(Cc1ccc2ccccc2c1)NC(=O)C(=O)Cc1c[nH]c2ccccc12)C(=O)NC(CCC(=O)O)C(=O)O (centres unmarked) [Compound 162]
– | > 18.9 | CC(C)C[C@H](NC(=O)C(=O)Cc1c[nH]c2ccccc12)C(=O)N[C@H](CC(C)C)C(=O)N[C@H](C(=O)O)C(C)C [Compound 17]

IC50 for the inhibition of the chymotrypsin-like activity of 20S proteasome [µg/mL] | IC50 [µM] | SMILES
>10 | – | CC(C)CC(NC(=O)CCNC(=O)C(=O)Cc1c[nH]c2ccccc12)C(=O)NC(CO)C(=O)O (centres unmarked) [Compound 90]
>10 | – | CC(C)CC(NC(=O)C(=O)Cc1c[nH]c2ccccc12)C(=O)NC(CC(C)C)C(=O)NCC(=O)O (centres unmarked) [Compound 85]
>10 | – | CC(C)CC(NC(=O)C(CC(=O)O)NC(=O)C(=O)Cc1c[nH]c2ccccc12)C(=O)NC(C(=O)O)C(C)C (centres unmarked) [Compound 43]
>10 | – | CC(C)CC(NC(=O)C(=O)c1ccccc1)C(=O)NC(CC(C)C)C(=O)NCC(=O)O (centres unmarked) [Compound 12]
>10 | – | CC(C)CC(NC(=O)C(Cc1ccccc1)NC(=O)C(=O)Cc1c[nH]c2ccccc12)C(=O)NC(CC(=O)O)C(=O)O (centres unmarked) [Compound 137]
>10 | – | CC(C)CC(NC(=O)C(Cc1ccc2ccccc2c1)NC(=O)C(=O)Cc1c[nH]c2ccccc12)C(=O)NCC(=O)O (centres unmarked) [Compound 170]
>10 | – | CCCCC(NC(=O)C(CC(C)C)NC(=O)C(Cc1ccc(O)cc1)NC(=O)C(=O)Cc1c[nH]c2ccccc12)C(=O)O (centres unmarked) [Compound 128]
>10 | – | CCCCC(NC(=O)C(=O)Cc1c[nH]c2ccccc12)C(=O)NC(CC(C)C)C(=O)NCC(=O)O (centres unmarked) [Compound 54]
>10 | – | CC(C)CC(NC(=O)C(Cc1ccccc1)NC(=O)C(=O)Cc1c[nH]c2ccccc12)C(=O)NC(CO)C(=O)O (centres unmarked) [Compound 92]
>10 | – | CCCCC(NC(=O)C(CC(C)C)NC(=O)C(CCCC)NC(=O)C(=O)Cc1c[nH]c2ccccc12)C(=O)O (centres unmarked) [Compound 121]
>10 | – | CC(C)CC(NC(=O)C(Cc1cccnc1)NC(=O)C(=O)Cc1c[nH]c2ccccc12)C(=O)NC(C)C(=O)O (centres unmarked) [Compound 79]
>10 | – | CC(C)CC(NC(=O)C(=O)Cc1c[nH]c2ccccc12)C(=O)NC(CC(C)C)C(=O)NC(Cc1ccc(O)cc1)C(=O)O (centres unmarked) [Compound 26]
>10 | – | CC(C)CC(NC(=O)C(NC(=O)C(=O)Cc1c[nH]c2ccccc12)C(C)O)C(=O)NC(CC(=O)O)C(=O)O (centres unmarked) [Compound 138]
>10 | – | CC(C)CC(NC(=O)C(NC(=O)C(=O)Cc1c[nH]c2ccccc12)C(C)O)C(=O)NC(C(=O)O)C(C)C (centres unmarked) [Compound 41]
>10 | – | CC(C)CC(NC(=O)C(C)NC(=O)C(=O)Cc1c[nH]c2ccccc12)C(=O)NC(Cc1ccccc1)C(=O)O (centres unmarked) [Compound 109]
>10 | – | CC(C)CC(NC(=O)C(=O)Cc1ccccc1)C(=O)NC(CC(C)C)C(=O)NCC(=O)NCc1ccccc1 (centres unmarked) [Compound 7]
>10 | – | CC(C)CC(NC(=O)CNC(=O)C(=O)Cc1c[nH]c2ccccc12)C(=O)NC(Cc1ccccc1)C(=O)O (centres unmarked) [Compound 104]
>10 | – | CC(C)CC(NC(=O)C(NC(=O)C(=O)Cc1c[nH]c2ccccc12)C(C)C)C(=O)NC(CO)C(=O)O (centres unmarked) [Compound 96]
– | > 16.4 | CC(C)CC(NC(=O)C(Cc1ccc(O)cc1)NC(=O)C(=O)Cc1c[nH]c2ccccc12)C(=O)NC(CCC(=O)O)C(=O)O (centres unmarked) [Compound 158]
>10 | – | CCCC(NC(=O)C(=O)Cc1c[nH]c2ccccc12)C(=O)NC(CC(C)C)C(=O)NC(CCC(=O)O)C(=O)O (centres unmarked) [Compound 157]
>10 | – | CC(C)CC(NC(=O)C(CC1CCCCC1)NC(=O)C(=O)Cc1c[nH]c2ccccc12)C(=O)NC(C(=O)O)C(C)C (centres unmarked) [Compound 168]
– | > 18.8 | CC(C)C[C@@H](NC(=O)[C@H](CC(=O)O)NC(=O)C(=O)Cc1c[nH]c2ccccc12)C(=O)N[C@H](C(=O)O)C(C)C [Compound 200]
>10 | – | CC(C)CC(NC(=O)C(C)NC(=O)C(=O)Cc1c[nH]c2ccccc12)C(=O)NC(CC(=O)O)C(=O)O (centres unmarked) [Compound 139]
>10 | – | CC(C)CC(NC(=O)C(NC(=O)C(=O)Cc1c[nH]c2ccccc12)C(C)O)C(=O)NCC(=O)O (centres unmarked) [Compound 56]

SMILES | IC50 for the inhibition of the chymotrypsin-like activity of 20S proteasome [µg/mL] | IC50 [µM]
CC(C)CC(NC(=O)C(=O)Cc1c[nH]c2ccccc12)C(=O)NC(CC(C)C)C(=O)NC(C)C(=O)O (centres unmarked) [Compound 25] | >10 | –
CC(C)CC(NC(=O)C(=O)Cc1c[nH]c2ccccc12)C(=O)NC(CC(C)C)C(=O)NC(C)C(=O)O (centres unmarked) [Compound 30] | – | > 20
